Results taken from paper PMC3368261, “Substituted aminopyrimidine protein kinase B (PknB) inhibitors show activity against Mycobacterium tuberculosis” (Bioorganic & Medicinal Chemistry Letters, 2012).
Converted amounts (≈) assume the structure as drawn. Like-named read-outs stand apart in the source and are kept apart here.

Columns and labels:
[1] = molecular target: PknB (Mycobacterium tuberculosis, UniProt P9WI81); experiment: PknB enzyme inhibition, in vitro phosphorylation of the substrate GarA; type: biochemical
[2] = system: M. tuberculosis; experiment: Alamar blue cellular assay against M. tuberculosis (MIC); type: cell-based; settings: Mycobacterium tuberculosis
[3] = physchem; type: physicochemical
[4] = system: 76-member human kinase panel; type: biochemical; settings: 10 μM inhibitor concentration, 76 kinases
[5] = assay conditions described in Ref. [8] (Table 5: Ref. [10]), read-out: PknB IC50

Chain of PknB (P9WI81 whole entry): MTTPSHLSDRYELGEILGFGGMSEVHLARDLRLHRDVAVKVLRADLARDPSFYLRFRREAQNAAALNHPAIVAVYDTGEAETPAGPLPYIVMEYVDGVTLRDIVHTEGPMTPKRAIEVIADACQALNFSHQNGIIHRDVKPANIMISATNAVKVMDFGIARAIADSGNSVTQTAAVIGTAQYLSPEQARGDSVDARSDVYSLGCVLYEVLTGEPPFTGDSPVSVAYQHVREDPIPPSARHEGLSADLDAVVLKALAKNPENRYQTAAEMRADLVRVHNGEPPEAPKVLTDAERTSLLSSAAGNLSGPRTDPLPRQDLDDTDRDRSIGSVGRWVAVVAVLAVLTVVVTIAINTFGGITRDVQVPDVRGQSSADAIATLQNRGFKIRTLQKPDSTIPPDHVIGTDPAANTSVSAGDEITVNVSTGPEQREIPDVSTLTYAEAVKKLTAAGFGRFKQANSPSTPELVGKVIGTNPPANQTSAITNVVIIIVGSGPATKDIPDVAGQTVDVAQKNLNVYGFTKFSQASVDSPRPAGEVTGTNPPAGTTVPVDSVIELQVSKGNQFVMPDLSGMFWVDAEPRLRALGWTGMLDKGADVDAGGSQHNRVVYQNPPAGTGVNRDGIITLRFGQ

Structure (SMILES)	IC50 [1, 5] [nM]	MIC [2] [µM]	also measured
Cc1cc(Nc2nc(-c3ccncc3)nc3ccccc23)n[nH]1 [Compound 1]			IC50 ([1]; high throughput screen, GarA phosphorylation, read-out: PknB inhibition (HTS hit)): 1350 nM
c1ccc2c(Nc3cc(C4CC4)[nH]n3)nc(-c3ccncc3)nc2c1 [Compound 5a]			improvement in PknB binding affinity [1]: fourfold improvement in binding affinity; IC50 ([1]; read-out: PknB IC50): 322 nM
Fc1ccc(-c2nc(Nc3cc[nH]n3)c3ccccc3n2)cc1 [Compound 5b]	453		
Cc1cc(Nc2nc(-c3ccc(F)cc3)nc3ccccc23)n[nH]1 [Compound 5c]	1160		
Fc1ccc(-c2nc(Nc3cc(C4CC4)[nH]n3)c3ccccc3n2)cc1 [Compound 5d]	223		
c1ccc(-c2nc(Nc3cc(C4CC4)[nH]n3)c3ccccc3n2)cc1 [Compound 5e]	440		
c1ccc2c(Nc3cc(C4CC4)[nH]n3)nc(NC3CCCCC3)nc2c1 [Compound 5f]			IC50 ([1]; read-out: PknB IC50): 107 nM
c1ccc2c(Nc3cc(C4CC4)[nH]n3)nc(NCC3CC3)nc2c1 [Compound 5g]	428		
Fc1ccc(-c2nccc(Nc3cc(C4CC4)[nH]n3)n2)cc1 [Compound 8a]	375	> 500	
NC(=O)c1cccc(-c2nccc(Nc3cc(C4CC4)[nH]n3)n2)c1 [Compound 8b]	384	63 (≈ 20.2 µg/mL)	
CS(=O)(=O)Nc1cccc(-c2nccc(Nc3cc(C4CC4)[nH]n3)n2)c1 [Compound 8c]	393	31 (≈ 11.5 µg/mL)	
CS(=O)(=O)c1cccc(-c2nccc(Nc3cc(C4CC4)[nH]n3)n2)c1 [Compound 8d]	86	63 (≈ 22.4 µg/mL)	
CS(=O)(=O)NCc1ccc(-c2nccc(Nc3cc(C4CC4)[nH]n3)n2)cc1 [Compound 8e]	241	63 (≈ 24.2 µg/mL)	
N#Cc1cccc(-c2nccc(Nc3cc(C4CC4)[nH]n3)n2)c1 [Compound 8f]		125 (≈ 37.8 µg/mL)	IC50 ([1]; read-out: PknB IC50): 87 nM
c1cncc(-c2nccc(Nc3cc(C4CC4)[nH]n3)n2)c1 [Compound 8g]	202	125 (≈ 34.8 µg/mL)	
c1cc(Nc2cc(C3CC3)[nH]n2)nc(NC2CCCCC2)n1 [Compound 8h]	84	63 (≈ 18.8 µg/mL)	
CC(C)CCNc1nccc(Nc2cc(C3CC3)[nH]n2)n1 [Compound 8i]	354	63 (≈ 18 µg/mL)	
c1ccc(CNc2nccc(Nc3cc(C4CC4)[nH]n3)n2)cc1 [Compound 8j]	715	125 (≈ 38.3 µg/mL)	

Structure (SMILES)	IC50 [1, 5] [nM]	MIC [2] [µM]	also measured
Fc1cccc(CCNc2nccc(Nc3cc(C4CC4)[nH]n3)n2)c1 [Compound 8k]		63 (≈ 21.3 µg/mL)	IC50 ([1]; read-out: PknB IC50): 74 nM
Clc1ccccc1CCNc1nccc(Nc2cc(C3CC3)[nH]n2)n1 [Compound 8l]	64	125 (≈ 44.4 µg/mL)	
c1cc(Nc2cc(C3CC3)[nH]n2)nc(NCC2CC2)n1 [Compound 8m]		250 (≈ 67.6 µg/mL)	IC50 ([1]; read-out: PknB IC50): 217 nM
c1cc(Nc2cc(C3CC3)[nH]n2)nc(NC2CCCC2)n1 [Compound 8n]	115	63 (≈ 17.9 µg/mL)	
CN(C)CCNc1cc(Nc2cc(C3CC3)[nH]n2)nc(-c2ccccc2)n1 [Compound 11a]	88	125 (≈ 45.4 µg/mL)	logD [3]: 3.7
CN1CCN(c2cc(Nc3cc(C4CC4)[nH]n3)nc(-c3ccccc3)n2)CC1 [Compound 11b]	121	63 (≈ 23.7 µg/mL)	logD [3]: 3.6
CN1CCC(CNc2cc(Nc3cc(C4CC4)[nH]n3)nc(-c3ccccc3)n2)CC1 [Compound 11c]		31 (≈ 12.5 µg/mL)	IC50 ([1]; read-out: PknB IC50): 55 nM; logD [3]: 2.3
CN1CCC(Nc2cc(Nc3cc(C4CC4)[nH]n3)nc(-c3ccccc3)n2)CC1 [Compound 11d]	73	31 (≈ 12.1 µg/mL)	logD [3]: 2.3
CN(C)[C@@H]1CCN(c2cc(Nc3cc(C4CC4)[nH]n3)nc(-c3ccccc3)n2)C1 [Compound 11e]	53	16 (≈ 6.23 µg/mL)	logD [3]: 3.8
c1ccc(-c2nc(Nc3cc(C4CC4)[nH]n3)cc(OCCN3CCCC3)n2)cc1 [Compound 11f]	56	31 (≈ 12.1 µg/mL)	logD [3]: 3.4
CN(C)[C@@H]1CCN(c2cc(Nc3cc(C4CC4)[nH]n3)nc(-c3cccc(C#N)c3)n2)C1 [Compound 15a]	56	63 (≈ 26.1 µg/mL)	
CN(C)CCNc1cc(Nc2cc(C3CC3)[nH]n2)nc(-c2cccc(C#N)c2)n1 [Compound 15b]	39	63 (≈ 24.5 µg/mL)	gain in PknB enzyme affinity [1]: approximately twofold
CN1CCC(CNc2cc(Nc3cc(C4CC4)[nH]n3)nc(-c3cccc(C#N)c3)n2)CC1 [Compound 15c]	23	31 (≈ 13.3 µg/mL)	gain in PknB enzyme affinity [1]: approximately twofold
CN1CCC(CNc2cc(Nc3cc(C4CC4)[nH]n3)nc(-c3cccc(S(C)(=O)=O)c3)n2)CC1 [Compound 15d]		63 (≈ 30.3 µg/mL)	IC50 ([1]; read-out: PknB IC50): 40 nM
CN(C)[C@@H]1CCN(c2cc(Nc3ccccn3)nc(-c3cccc(C#N)c3)n2)C1 [Compound 16a]	1990	31 (≈ 11.9 µg/mL)	
COc1ccnc(Nc2cc(N3CC[C@@H](N(C)C)C3)nc(-c3ccccc3)n2)c1 [Compound 16b]	1130	31 (≈ 12.1 µg/mL)	
CN(C)[C@@H]1CCN(c2cc(Nc3cc(Cl)ccn3)nc(-c3ccccc3)n2)C1 [Compound 16c]	176	8 (≈ 3.16 µg/mL)	kinase selectivity against human kinase panel [4]: improvement in selectivity relative to 11e
CN(C)[C@@H]1CCN(c2cc(Nc3cc(C(F)(F)F)ccn3)nc(-c3cccc(C#N)c3)n2)C1 [Compound 16d]		16 (≈ 7.26 µg/mL)	IC50 ([1]; read-out: PknB IC50): 40 nM
